Assay results reported in ChEMBL document CHEMBL1909515, “Discovery of a new type inhibitor of human glyoxalase I by myricetin-based 4-point pharmacophore” (Bioorg Med Chem Lett, 2011).
Activity calls are given as the source filed them. The rule behind the calls is not given here.

Key:
Lactoylglutathione lyase [1] = biological target: T1, Lactoylglutathione lyase (Homo sapiens, UniProt Q04760); assay: Inhibition of recombinant human His-tagged glyoxalase 1 expressed in Escherichia coli BL21 assessed as formation of S-D-lactoylglutathione after 5 mins by spectrophotometric method
Target sequence in this assay (Q04760 whole entry): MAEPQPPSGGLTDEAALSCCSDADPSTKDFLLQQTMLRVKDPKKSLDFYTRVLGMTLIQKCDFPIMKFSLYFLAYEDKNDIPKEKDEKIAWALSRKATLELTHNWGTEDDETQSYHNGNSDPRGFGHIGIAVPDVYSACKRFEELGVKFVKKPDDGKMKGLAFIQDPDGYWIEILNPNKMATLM

Lactoylglutathione lyase [2] = biological target: T1, Lactoylglutathione lyase; assay: Inhibition of human recombinant His-tagged glyoxalase 1 expressed in Escherichia coli BL21 assessed as formation of S-D-lactoylglutathione at 100 uM after 5 mins by spectrophotometric method
Target sequence in this assay (Q04760 2-184 limits assumed): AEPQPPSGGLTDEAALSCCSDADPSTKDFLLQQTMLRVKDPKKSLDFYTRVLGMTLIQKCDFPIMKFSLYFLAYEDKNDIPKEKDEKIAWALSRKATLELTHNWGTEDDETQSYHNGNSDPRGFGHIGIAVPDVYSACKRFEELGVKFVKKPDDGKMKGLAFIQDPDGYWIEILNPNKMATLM

HL-60 [3] = assay: Antiproliferative activity against human HL60 cells at 300 uM; format: functional, cell-based
HL-60 [4] = assay: induction of apoptosis in human HL60 cells at 300 uM; format: functional, cell-based

Row | IC50 (Lactoylglutathione lyase [1]) | inhibition (Lactoylglutathione lyase [2]) | Structure (SMILES) | Activity (HL-60 [3]) | Activity (HL-60 [4])
1 | 54.6 µM | Active | COc1ccc(C(=O)Nc2sc3c(c2C(=O)O)CCCC3)cc1 | – | –
2 | 2 µM | Active | COc1ccc(/C=C(/CC(=O)O)c2nc3ccccc3s2)cc1 | Active | Active
3 | 93.2 µM | Active | COc1ccc(C(=O)Nc2ccccc2C(=O)O)cc1 | – | –
